Values quoted from earlier work as cited in US12708655B2, “Botanicals as WNT/beta-catenin activators, molecular pathway regulators, tissue regenerators and health biomarker regulators” (Arbor Life Holdings, Ltd., priority 2020, dated 2026).

Legend:
[1] = compounds found in Eclipta; NA = Not Applicable; cited from earlier work
[2] = compounds found in Eclipta; NA = Not Applicable; cited from earlier work; remark: listed apart in the source

| Compound | Anticancer activity (AC) [1] | Antioxidant activity (AO) [2] |
| --- | --- | --- |
| O=c1cc(-c2ccc(O)c(O)c2)oc2cc(O)cc(O)c12 [Luteolin] | YES | YES |
| CC[C@H](CC[C@@H](C)[C@H]1CC[C@H]2[C@@H]3CC=C4C[C@@H](O)CC[C@]4(C)[C@H]3CC[C@]12C)C(C)C [β-sitosterol] | YES | YES |
| O=c1cc(-c2ccc(O)cc2)oc2cc(O)cc(O)c12 [Apigenin] | YES | YES |
| CC[C@H](/C=C/[C@@H](C)[C@H]1CC[C@H]2[C@@H]3CC=C4C[C@@H](O)CC[C@]4(C)[C@H]3CC[C@]12C)C(C)C [Stigmasterol] | YES | YES |
| O=C(O)c1cc(O)c(O)c(O)c1 [Gallic acid] | YES | YES |
| C[C@@H]1O[C@@H](Oc2c(-c3ccc(O)c(O)c3)oc3cc(O)cc(O)c3c2=O)[C@H](O)[C@H](O)[C@H]1O [Quercetin-3-rhamnoside] | YES | YES |
| O=c1cc(-c2ccc(O)cc2)oc2cc(O[C@@H]3O[C@H](CO)[C@@H](O)[C@H](O)[C@H]3O)cc(O)c12 [Apigenin-7-O-glucoside] | YES | YES |
| COc1cc(O)c2c(c1)oc(=O)c1c3cc(O)c(O)cc3oc21 [Wedelolactone] | YES | YES |
| O[C@H]1[C@H](O)[C@@H](O)[C@H](O)[C@@H](O)[C@H]1O [Myoinositol] | YES | YES |
| Oc1ccccc1O [Catechol] | YES | YES |
| O=c1cc(-c2ccc(O)c(O)c2)oc2cc(O[C@@H]3O[C@H](CO)[C@@H](O)[C@H](O)[C@H]3O)cc(O)c12 [Cynaroside] | YES | YES |
| CC1(C)CC[C@]2(C)CC[C@]3(C)C(=CC[C@@H]4[C@@]5(C)CC[C@H](O)C(C)(C)[C@@H]5CC[C@]43C)[C@@H]2C1 [β-amyrin] | – | YES |
| Echinocystic acid | YES | – |
| O=c1oc2cc(O)cc(O)c2c2oc3cc(O)c(O)cc3c12 [Demethylwedelolactone] | YES | YES |
| O=C(O)c1cccnc1 [Nicotinic acid] | YES | YES |
| Demethylwedelolactone 7-glucoside | YES | YES |
| O=C(O)c1ccc(O)cc1 [4-hydroxybenzoic acid] | YES | YES |
| COC[C@@H]1Cc2cc(OC)c3c(c2[C@H](c2ccc(OC)c(OC)c2)[C@H]1COC)OCO3 [Hypophyllanthin] | YES | YES |
| O=C(O)c1ccc(O)c(O)c1 [3,4-dihydroxybenzoic acid] | YES | YES |
| O=C(/C=C/c1ccc(O)c(O)c1)c1ccc(O)cc1O [Butein] | YES | YES |
| OCc1ccc(-c2ccc(-c3cccs3)s2)s1 [α-terthienyl methanol] | YES | – |
